Results published in US20090088466A1, “OPIOID RECEPTOR LIGANDS” (priority 2005, published 2009).

Columns and labels:
[1] = molecular target: T1, hemagglutinin (HA-N-terminus) tagged mouse μOR (Mus musculus, UniProt P42866); assay: Phospho-ERK1/2 immunoblot assay; format: cell-based
T1 construct: expressed in transfected cells

[2] = molecular target: T2, HA-tagged mu opioid receptor (Mus musculus, UniProt P42866); assay: Immunoprecipitation / μOR phosphorylation at serine 375; format: cell-based; conditions: HEK-293 cells stably expressing HA-tagged μOR; 10 μM, 10 min
T2 construct: expressed in transfected cells

HA-μOR = molecular target: T3, HA-μOR (Mus musculus, UniProt P42866); assay: Agonist-induced βarr2-GFP translocation to μOR in HEK-293 cells; format: cell-based
T3 construct: expressed in transfected cells; host or cells: HEK-293 (transient)

mouse μOR-YFP = molecular target: T4, mouse μOR-YFP (Mus musculus, UniProt P42866); assay: Agonist-induced internalization of μOR-YFP in HEK-293 cells; format: cell-based
T4 construct: expressed in transfected cells; host or cells: HEK-293 (transient; GRK2 co-transfected in panel C)

HA-N-terminus tagged μOR = molecular target: T5, HA-N-terminus tagged μOR (Mus musculus, UniProt P42866); assay: Immunofluorescence of cell surface receptors; format: cell-based; conditions: intact nonpermeabilized HEK-293 cells; drug treatment over 2 hours
T5 construct: expressed in transfected cells

[3] = molecular target: T6, μOR1-D splice variant of the mouse μOR (Mus musculus, UniProt P42866); assay: Agonist-induced μOR1-D-GFP internalization; format: cell-based; conditions: HEK-293 transiently transfected with μOR1-D-GFP
T6 construct: expressed in transfected cells; host or cells: HEK-293 (transient)

[4] = test system: formalin-induced nociceptive responses; assay: Formalin rat paw withdrawal test; format: in vivo
Excerpt: Animals: Male Sprague-Dawley rats (Harlan, Indianapolis, Ind.) weighing 250-275 g were used. Rats were housed one to two per cage with free access to food and water, and maintained on a 12-h light/dark cycle in the Association for the Assessment and Accreditation of Laboratory Animal Care-approved animal care facility. The Institutional Animal Care and Use Committee of The University of Iowa approved all experimental procedures.
Formalin Rat Paw Withdrawal Test: Rats were placed in clear plexiglass testing chambers (30.5×30.5×30.5 cm) and allowed to acclimate for 20 minutes. A mirror was placed at a 45° angle below the floor to allow for an unobstructed view of the rats paws. No restraint was placed on the rats and a HEPA filter was continuously run in order to mask external noise. Following the 20-min acclimation period, animals received a 100 μL injection of either Compound Vb (˜0.04 mg/kg) or vehicle subcutaneously in the paw and were placed back into the testing chamber for 5 minutes (Joshi et al., 2000; Joshi and Gebhart, 2003). Animals were then injected with 100 μL of a 1.25% formalin solution into the plantar surface according to the methods previously described (Dubuisson, D. & Dennis, S. G., […], Pain 4, 161-74; Wheeler-Aceto, H. & Cowan, A., 1991, Psychopharmacology (Berl) 104, 35-44; and Kaneko, M. & Hammond, D. L., 1997, J Pharmacol Exp Ther 282, 928-38). Behavior was observed and tracked for 1 hour and the number of flinches was recorded using a Windows XP-based (Microsoft, Seattle, Wash.) program. Each drug treatment group consisted of 6 rats and no rat was tested more than once. For the antagonist studies, rats were pretreated with either nor-binaltorphimine (nor-BNI) (5 mg/kg, 24 hours prior to agonist) or naloxone (5 mg/kg s.c. 30 min prior to agonist) subcutaneously behind the neck.
Chronic study: Chronic animals were given vehicle or Compound Vb alternating dorsal and plantar surface to avoid sensitization caused from injections at the same site over a 5 day period. Following administration of drug on the fifth day, rats were then administered formalin and observed as described above.

μOR = μOR (Homo sapiens, UniProt P35372); conditions: CHO cells stably expressing each receptor type; cited from earlier work
δOR = δOR (Homo sapiens, UniProt P41143); conditions: CHO cells stably expressing each receptor type; cited from earlier work
κOR = κOR (Homo sapiens, UniProt P41145); conditions: cited from earlier work
[5] = test system: formalin-induced nociceptive responses; conditions: similar testing conditions (literature); cited from earlier work
[6] = HEK-293 transiently transfected with mouse μOR-YFP

Sequence of δOR (P41143 whole entry): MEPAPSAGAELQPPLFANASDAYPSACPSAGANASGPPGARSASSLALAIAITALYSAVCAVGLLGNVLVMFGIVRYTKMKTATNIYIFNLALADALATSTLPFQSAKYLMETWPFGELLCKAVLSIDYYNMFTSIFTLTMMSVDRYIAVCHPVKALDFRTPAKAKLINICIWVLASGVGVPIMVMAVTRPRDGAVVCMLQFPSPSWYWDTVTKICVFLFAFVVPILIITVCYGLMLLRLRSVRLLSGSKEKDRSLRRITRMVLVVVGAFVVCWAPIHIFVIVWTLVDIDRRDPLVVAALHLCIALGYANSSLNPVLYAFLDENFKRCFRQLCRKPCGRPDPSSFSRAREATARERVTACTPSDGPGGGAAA
Sequence of μOR (P35372 whole entry): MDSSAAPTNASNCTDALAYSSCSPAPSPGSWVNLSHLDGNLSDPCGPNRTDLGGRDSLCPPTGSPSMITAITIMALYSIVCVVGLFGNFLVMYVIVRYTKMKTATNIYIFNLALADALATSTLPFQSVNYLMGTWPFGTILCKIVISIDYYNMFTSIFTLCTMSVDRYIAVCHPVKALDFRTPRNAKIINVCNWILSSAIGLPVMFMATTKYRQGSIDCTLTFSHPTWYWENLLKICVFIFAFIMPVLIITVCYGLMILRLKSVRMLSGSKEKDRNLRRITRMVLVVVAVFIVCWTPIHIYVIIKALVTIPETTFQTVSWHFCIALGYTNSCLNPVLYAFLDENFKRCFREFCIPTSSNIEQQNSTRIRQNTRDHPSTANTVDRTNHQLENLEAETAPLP
Sequence of κOR (P41145 whole entry): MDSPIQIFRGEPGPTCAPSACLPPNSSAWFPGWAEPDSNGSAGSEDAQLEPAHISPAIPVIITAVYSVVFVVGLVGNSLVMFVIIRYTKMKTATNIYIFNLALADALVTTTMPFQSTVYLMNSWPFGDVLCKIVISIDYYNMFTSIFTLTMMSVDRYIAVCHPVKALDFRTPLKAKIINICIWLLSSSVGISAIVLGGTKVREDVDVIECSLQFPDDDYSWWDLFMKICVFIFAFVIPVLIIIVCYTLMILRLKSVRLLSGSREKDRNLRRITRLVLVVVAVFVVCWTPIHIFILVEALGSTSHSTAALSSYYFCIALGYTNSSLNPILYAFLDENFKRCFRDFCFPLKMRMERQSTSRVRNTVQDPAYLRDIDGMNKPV

COC(=O)[C@@H]1C[C@H](OC(=O)c2ccccc2Br)C(=O)[C@@H]2[C@@]3(C)C[C@@H](c4ccoc4)OC(=O)[C@H]3CC[C@]21C
melting point: 189 to 191 °C

COC(=O)[C@@H]1C[C@H](OC(=O)c2cccc(Br)c2)C(=O)[C@@H]2[C@@]3(C)C[C@@H](c4ccoc4)OC(=O)[C@H]3CC[C@]21C
melting point: 195 to 199 °C

COC(=O)[C@@H]1C[C@H](OC(=O)c2cccs2)C(=O)[C@H]2[C@@]1(C)CC[C@H]1C(=O)O[C@H](c3ccoc3)C[C@]21C
melting point: 143 to 145 °C

COC(=O)[C@@H]1C[C@H](OC(=O)c2ccsc2)C(=O)[C@H]2[C@@]1(C)CC[C@H]1C(=O)O[C@H](c3ccoc3)C[C@]21C
melting point: 211 to 212 °C

COC(=O)[C@@H]1C[C@H](OC(=O)c2cc3ccccc3o2)C(=O)[C@H]2[C@@]1(C)CC[C@H]1C(=O)O[C@H](c3ccoc3)C[C@]21C
melting point: 226 to 227 °C

COC(=O)[C@@H]1C[C@H](OS(=O)(=O)c2ccccc2)C(=O)[C@@H]2[C@@]3(C)C[C@@H](c4ccoc4)OC(=O)[C@H]3CC[C@]21C
melting point: 157 to 159 °C (dec.)

COC(=O)[C@@H]1C[C@H](OS(=O)(=O)c2ccc(C)cc2)C(=O)[C@@H]2[C@@]3(C)C[C@@H](c4ccoc4)OC(=O)[C@H]3CC[C@]21C
melting point: 163 to 165 °C (dec.)

COC(=O)[C@@H]1C[C@H](OS(=O)(=O)c2ccc(OC)cc2)C(=O)[C@@H]2[C@@]3(C)C[C@@H](c4ccoc4)OC(=O)[C@H]3CC[C@]21C
melting point: 148 to 149 °C (dec.)

COC(=O)[C@@H]1C[C@H](OC(=O)Nc2ccc([N+](=O)[O-])cc2)C(=O)[C@H]2[C@@]1(C)CC[C@H]1C(=O)O[C@H](c3ccoc3)C[C@]21C
melting point: 251 to 253 °C

COC(=O)[C@@H]1C[C@H](OC(=O)Cc2ccccc2)C(=O)[C@@H]2[C@@]3(C)C[C@@H](c4ccoc4)OC(=O)[C@H]3CC[C@]21C
melting point: 111 to 114 °C

COC(=O)[C@@H]1C[C@@H](C(=O)CCc2ccccc2)C(=O)[C@@H]2[C@@]3(C)C[C@@H](c4ccoc4)OC(=O)[C@H]3CC[C@]21C
melting point: 155 to 158 °C

COC(=O)[C@@H]1C[C@H](OC(=O)c2ccccc2)C(=O)[C@H]2[C@@]1(C)CC[C@H]1C(=O)OC(c3ccoc3)C[C@]21C (stereo partly shown) [Compound Vb]
ERK1/2 phosphorylation ([1]; HEK-293 cells stably expressing HA-tagged mouse μOR, 10 min stimulation): dose dependently activates the Map Kinases, ERK1/2, in a μOR antagonist reversible manner | Compound Vb-induced ERK activation after naloxone pretreatment ([1]; naloxone 10 μM during the 30 min serum starvation): blocked | μOR phosphorylation at serine 375 [2]: does not promote robust phosphorylation | βarr2-GFP translocation (HA-μOR; HEK-293, 2 μM, 10 min): does not induce βarr2-GFP translocation | βarr2-GFP translocation (HA-μOR; HEK-293 overexpressing GRK2, 2 μM, 10 min): does not promote βarr2-GFP translocation | βarr2-GFP translocation (HA-μOR; HEK-293 overexpressing GRK2, 100 μM, 30 min): does not promote βarr2-GFP translocation | μOR-YFP internalization (mouse μOR-YFP; HEK-293 overexpressing GRK2 (5 μg cDNA)): does not | μOR-YFP internalization (mouse μOR-YFP; [6]): do not induce receptor internalization | loss of cell surface receptors (HA-N-terminus tagged μOR): maintain the same level of cell surface receptor expression | μOR1-D internalization [3]: fails to internalize this receptor variant | total number of flinches in second phase of formalin test ([4]; acute (Day 1) and chronic (Day 5) vs vehicle): significantly inhibits formalin-induced flinching compared to vehicle in both treatment paradigms | antinociception Day 5 vs Day 1 ([4]; chronic treatment 5 days): significantly more Compound Vb-induced antinociception than seen on Day 1 | antinociception after naloxone pretreatment ([4]; naloxone 5 mg/kg s.c. 30 min prior): reversible by naloxone pretreatment | antinociception after nor-BNI pretreatment ([4]; nor-BNI 5 mg/kg s.c. 24 hours prior): did not block Compound Vb's efficacy but rather significantly enhanced it | development of antinociceptive tolerance ([4]; repeated administration, 5 days): did not lead to the development of antinociceptive tolerance | antinociception in formalin paw-withdrawal test ([4]; ˜0.04 mg/kg s.c. paw, 5 min prior to 1.25% formalin, acute): produced significant antinociception in the second phase | affinity for μOR relative to κOR (μOR): greater affinity for μOR over κOR | affinity for δOR (δOR): no affinity | affinity at κOR (κOR): retains some affinity

C[C@@H](NC(=O)[C@@H](N)Cc1ccc(O)cc1)C(=O)NCC(=O)N(C)[C@@H](Cc1ccccc1)C(=O)NCCO [DAMGO, [D-Ala^2, N-MePhe^4, Gly^5-ol]Enkephalin, reference compound]
βarr2-GFP translocation (HA-μOR; HEK-293, 1 μM): leads to βarr2-GFP translocation within 5 min | μOR-YFP internalization (mouse μOR-YFP; [6]): Internalization can be seen | loss of cell surface receptors (HA-N-terminus tagged μOR): 40%

CN1CC[C@]23c4c5ccc(O)c4O[C@H]2[C@@H](O)C=C[C@H]3[C@H]1C5 [morphine]
development of tolerance [5]: produces tolerance
